Data taken from PubChem BioAssay AID2197 (Vanderbilt High Throughput Screening Facility, 2009).
Activity calls are given as the source filed them. No rule for the calls is given here.

What follows are compounds tested against Metabotropic glutamate receptor 4 (Homo sapiens) (UniProt Q14833) (assay: PubChem AID 2197). Conditions: CHO hmGluR4/Gqi5 calcium mobilization, PAM potency.
Metabotropic glutamate receptor 4 (Homo sapiens), sequence (Q14833 whole entry, looked up): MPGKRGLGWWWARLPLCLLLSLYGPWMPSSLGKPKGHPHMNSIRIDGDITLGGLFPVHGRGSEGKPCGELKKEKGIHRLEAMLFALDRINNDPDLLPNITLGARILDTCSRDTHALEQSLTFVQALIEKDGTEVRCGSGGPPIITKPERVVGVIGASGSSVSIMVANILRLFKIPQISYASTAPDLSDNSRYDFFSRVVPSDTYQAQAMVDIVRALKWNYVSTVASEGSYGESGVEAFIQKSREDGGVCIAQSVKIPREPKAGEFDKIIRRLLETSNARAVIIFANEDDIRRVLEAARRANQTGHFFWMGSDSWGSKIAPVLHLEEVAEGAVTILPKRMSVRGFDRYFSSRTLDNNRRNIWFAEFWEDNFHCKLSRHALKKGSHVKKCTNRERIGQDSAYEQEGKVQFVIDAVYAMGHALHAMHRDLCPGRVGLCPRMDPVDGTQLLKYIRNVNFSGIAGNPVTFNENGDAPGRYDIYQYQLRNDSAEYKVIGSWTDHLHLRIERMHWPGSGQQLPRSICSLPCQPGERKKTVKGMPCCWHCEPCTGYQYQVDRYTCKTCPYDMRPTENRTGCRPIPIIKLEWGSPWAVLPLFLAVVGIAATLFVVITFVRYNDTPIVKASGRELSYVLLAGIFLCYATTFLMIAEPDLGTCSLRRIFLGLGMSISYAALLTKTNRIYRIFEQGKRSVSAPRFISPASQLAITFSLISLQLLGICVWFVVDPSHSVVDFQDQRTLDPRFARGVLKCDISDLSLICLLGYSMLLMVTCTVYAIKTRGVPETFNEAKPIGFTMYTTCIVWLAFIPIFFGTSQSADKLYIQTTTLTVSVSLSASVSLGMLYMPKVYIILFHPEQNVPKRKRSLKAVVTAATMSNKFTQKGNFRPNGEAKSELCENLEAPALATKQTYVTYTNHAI

Structure (SMILES)	EC50 [nM]
COc1cc(NC(=O)c2ccccn2)ccc1F	776
COc1cc(NC(=O)c2ccccn2)ccc1C	562
O=C(Nc1ccc(Cl)c(C(F)(F)F)c1)c1ccccn1	2050
O=C(Nc1cccc(Cl)c1)c1ccccn1	1090
O=C(Nc1ccc(Cl)c(Cl)c1)c1ccncn1	2840
O=C(Nc1ccc(Cl)c(Cl)c1)c1ccccn1	1370
COc1ccc(NC(=O)c2ccccn2)cc1Cl	1050
O=C(Nc1ccc(F)c(C(F)(F)F)c1)c1ccccn1	1530

Same assay, conditions: CHO hmGluR4/Gqi5 calcium mobilization, PAM potency; at 30.1 µM (top of the series)

% glutamate max response	Structure (SMILES)
inactive	COc1cc(NC(=O)c2ccccn2)ncn1
inactive	O=C(Nc1ccc(N2CCCS2(=O)=O)cc1)c1ccccn1
inactive	O=C(Nc1cccc(C(F)(F)F)n1)c1ccccn1
